Measurements: patent US9399016B2, “Materials and complexes for the delivery of biologically-active materials to cells” (UCL BUSINESS PLC, priority 2006, dated 2016)

Assays:
[1] = system: Neuro 2A, AJ3.1, bEND.3, 16HBE14o-, ΣCFTE29o- cells and primary PVSMCs; assay: In vitro transfection, luciferase reporter, statements covering several or all cell types studied; assay type: cell-based; conditions: for transfection efficiency, rank among PEG-acetal pH-sensitive lipids: all the cells, lipid/DOPE complexed to peptide 6 or E and pCI-Luc 2:4:1; for transfection efficiency of cleavable (RVRR) peptide compared with equivalent non-cleavable peptide control: Neuro 2A, bEND.3 and 16HBE14o- cells, stated for 'most' of the peptides, controls P1, P6, FMM12, PE, PY
Protocol: (§1) Cells were seeded into 96-well plates at 2.5×10^3 cells per well for bEND.3 cells and at 2×10^4 cells per well for all the other cells, then incubated overnight at 37° C. in complete growth medium. The following day, lipopolyplex (LPD) formulations were prepared essentially as described previously (Hart et al., 1998), by mixing the components in the following order: 50 μl of lipid (L) at 80 μg/ml in OptiMEM, 70 μl of peptide (P) at 110 μg/ml in OptiMEM and 50 μl of plasmid pCI-Luc (D) at 40 μg/ml in OptiMEM corresponding to a weight ratio of 2:4:1, respectively. All the complexes were mixed by pipetting briefly, kept for 1 h at room temperature and then diluted in OptiMEM to a final volume of 1.57 ml. Two hundred microliters of complexes corresponding at 0.25 μg of plasmid DNA were added to each culture well after removal of the complete growth medium. All the transfections were carried out in 6 wells each. A centrifugation (1500 rpm, during 5 minutes) could be performed to promote the complex sedimentation and cell contact. The cells were incubated with the complexes for 4 h at 37° C. before replacing with fresh media for 24 h, after which reporter gene expression was analysed by luciferase assay (Promega, Madison, Wis., USA). For bEND.3 cells, 5 mM sodium butyrate was added to the transfection medium and to the fresh media to achieve optimal expression levels.
(§2) Cells were washed once with PBS before the addition of 20 μl of 1× Reporter Lysis Buffer (Promega, Madison, Wis., USA) to the cells for 20 min at 4° C. before freezing at −80° C. for at least 30 min, followed by thawing at room temperature. Then the luciferase activity was measured during 10 seconds using the Luciferase Assay System (Promega, Madison, Wis., USA) and a Lucy-1 Luminometer (Anthos Ltd., Salzburg, Austria). The amount of protein present in each transfection lysate was determined with the Bio-Rad (Hercules, Calif., USA) protein assay reagent by the manufacturer's instructions, adding 20 μl from the luciferase test to 180 μl of the reagent diluted 1 in 5 and incubating at room temperature for 10 min before comparing the OD590 to a range of BSA standards. In vitro luciferase activity was expressed as Relative Light Units (RLU) per milligram of protein (RLU/mg).

ΣCFTE29o- cells = assay: In vitro transfection with LPD/LD complexes, luciferase reporter (pCI-Luc); assay type: cell-based, human; conditions: complexed to peptide E, p<0.05
Protocol: (§3) Cells were seeded into 96-well plates at 2.5×10^3 cells per well for bEND.3 cells and at 2×10^4 cells per well for all the other cells, then incubated overnight at 37° C. in complete growth medium. The following day, lipopolyplex (LPD) formulations were prepared essentially as described previously (Hart et al., 1998), by mixing the components in the following order: 50 μl of lipid (L) at 80 μg/ml in OptiMEM, 70 μl of peptide (P) at 110 μg/ml in OptiMEM and 50 μl of plasmid pCI-Luc (D) at 40 μg/ml in OptiMEM corresponding to a weight ratio of 2:4:1, respectively. […] The cells were incubated with the complexes for 4 h at 37° C. before replacing with fresh media for 24 h, after which reporter gene expression was analysed by luciferase assay (Promega, Madison, Wis., USA). […]
(§4) Cells were washed once with PBS before the addition of 20 μl of 1× Reporter Lysis Buffer (Promega, Madison, Wis., USA) to the cells for 20 min at 4° C. before freezing at −80° C. for at least 30 min, followed by thawing at room temperature. Then the luciferase activity was measured during 10 seconds using the Luciferase Assay System (Promega, Madison, Wis., USA) and a Lucy-1 Luminometer (Anthos Ltd., Salzburg, Austria). […] In vitro luciferase activity was expressed as Relative Light Units (RLU) per milligram of protein (RLU/mg).

16HBE14o- cells = assay: as above; assay type: cell-based, human; conditions: complexed to peptide E, p<0.05
Protocol: as §3, §4

[2] = Hydrolysis studies of PEG-acetal cleavable lipids; assay type: physicochemical; conditions: pH at which hydrolysis was observed; 37° C., pH range 3 to 7; TLC, confirmed by mass spectrometry
Protocol: Hydrolysis of the PEG-acetal lipids was investigated at 37° C. over a pH range of 3 to 7.
Acid hydrolysis of the compounds was monitored by TLC, and cleavage was then confirmed by mass spectrometry. An example of the TLC analysis method used for compound JBW389 is shown FIG. 4 with a control (the cleaved acetal product, the corresponding aldehyde) and the pH at which hydrolysis for all of the compounds prepared was observed is given in Table II.

[3] = system: primary porcine vascular smooth muscle cells (PVSMCs); assay: In vitro transfection with LPD/LD complexes, luciferase reporter (pCI-Luc); assay type: cell-based; conditions: complexed to peptide E, p<0.05
Protocol: as §3, §4

bEND.3 cells = assay: as above; assay type: cell-based, mouse; conditions: complexed to peptide E, p<0.05
Protocol: as §1, with “For bEND.3 cells, 5 mM sodium butyrate was added to the transfection medium and to the fresh media to achieve optimal expression levels.” left out
as §2, with “In vitro luciferase activity was expressed as Relative Light Units (RLU) per milligram of protein (RLU/mg).” left out

Neuro 2A cells = assay: as above; assay type: cell-based, mouse
Protocol: as §1, with “For bEND.3 cells, 5 mM sodium butyrate was added to the transfection medium and to the fresh media to achieve optimal expression levels.” left out
as §2, with “In vitro luciferase activity was expressed as Relative Light Units (RLU) per milligram of protein (RLU/mg).” left out

[4] = system: female A/J mice bearing a tumour (Neuro 2A); assay: In vivo transfection, i.v., luciferase expression in tumours and organs; parameters: species or system mouse; conditions: peptide complexed to lipid ME42/DOPE and pCI-Luc, 24 hours, p>0.05
Protocol: All animal procedures were approved and licensed by the Home Office and performed to the standards required by the UK Co-ordinating Committee on Cancer Research (UKCCCR) (Workman et al., British Journal of Cancer, 1998, 77, 1-10). Female A/J mice (Harlan Laboratories, U.K) of 8-12 weeks old were injected subcutaneously in the right posterior flank with 1.5×10^6 Neuro 2A cells. After 10±2 days, when tumors had reached approximately 8-12 mm in size, 100 μl of LPD complexes made in 5% glucose and containing 50 ug pCI-Luc or pAB 11 were injected into the tail vein. Experiments were carried out at least six times. Twenty-four hours after injection, mice were killed and tumours and organs were resected and stored at −80° C. Tissues were defrosted in ice, submersed in reporter gene assay lysis buffer (Roche, Germany), homogenized with an IKA homogenizer (IKA, Staufen, Germany) and centrifuged at 4600 rpm during 10 min at 4° C. The supernatant was got back and centrifuged at 13000 rpm during 10 min at 4° C. Luciferase activity in the tissue lysates was measured using a FLUOstar Optima (BMG Labtech, UK) during 30 seconds and was expressed as RLU per milligram of protein (RLU/mg). Two million RLU/30 sec correspond to 1 ng luciferase.

[5] = lipofectin:peptide:pCI-Luc 2:4:1

Compound	transfection efficiency, rank among PEG-acetal pH-sensitive lipids [1]	Hydrolysis pH [2]	transfection efficiency of cleavable (RVRR) peptide compared with equivalent non-cleavable peptide control [1, 5]	other results
CCCCCCCC/C=C\CCCCCCCCOCC(C[N+](C)(C)CCCC(OCCOCCO)OCCOCCO)OCCCCCCCC/C=C\CCCCCCCC (centres unmarked) [JBW389, N-(2,3-Bis((Z)-octadec-9-enyloxy)propyl)-4,4-bis(2-(2-hydroxyethoxy)ethoxy)-N,N-dimethylbutan-1-aminium chloride]	the best lipids for transfection	5.5	–	transfection efficiency relative to non-cleavable lipid JBW456 (ΣCFTE29o- cells): 2 times; transfection efficiency relative to non-cleavable lipid JBW456 (16HBE14o- cells): 6 times
CCCCCCCC/C=C\CCCCCCCCOCC(C[N+](C)(C)CCCCCCCC(OCCOCCO)OCCOCCO)OCCCCCCCC/C=C\CCCCCCCC (centres unmarked) [JBW400, N-(2,3-bis((Z)-octadec-9-enyloxy)propyl)-8,8-bis(2-(2-hydroxyethoxy)ethoxy)-N,N-dimethyloctan-1-aminium chloride]	the best lipids for transfection	4.0	–	transfection efficiency relative to non-cleavable lipid JBW456 [3]: 4 times; transfection efficiency relative to non-cleavable lipid JBW456 (bEND.3 cells): 2 times
CCCCCCCC/C=C\CCCCCCCCOCC(C[N+](C)(C)CCCCCC(OCCOCCO)OCCOCCO)OCCCCCCCC/C=C\CCCCCCCC (centres unmarked) [JBW411, N-(2,3-bis((Z)-octadec-9-enyloxy)propyl)-6,6-bis(2-(2-hydroxyethoxy)ethoxy)-N,N-dimethylhexan-1-aminium chloride]	less efficient	3.5	–	–
CCCCCCCC/C=C\CCCCCCCCOCC(C[N+](C)(C)CCCCCC(OCCOCCOCCOCCO)OCCOCCOCCOCCO)OCCCCCCCC/C=C\CCCCCCCC (centres unmarked) [JBW412]	less efficient	3.0	–	–
CCCCCCCC/C=C\CCCCCCCCOCC(C[N+](C)(C)CCCCCC(OCCOCCOC)OCCOCCOC)OCCCCCCCC/C=C\CCCCCCCC (centres unmarked) [JBW413, N-(2,3-Bis((Z)-octadec-9-enyloxy)propyl)-6,6-bis(2-(2-methoxyethoxy)ethoxy)-N,N-dimethylhexan-1-aminium chloride]	the best lipids for transfection	5.0	–	transfection efficiency compared with non-cleavable lipid JBW456 (Neuro 2A cells; complexed to peptide E, p>0.05): as efficient as JBW456
CCCC/C=C\CCCCCCCCCCOCC(C[N+](C)(C)CCCCCC(OCCOCCO)OCCOCCO)OCCCCCCCCCC/C=C\CCCC (centres unmarked) [JBW418, N-(2,3-Bis((Z)-hexadec-11-enyloxy)propyl)-6,6-bis(2-(2-hydroxyethoxy)ethoxy)-N,N-dimethylhexan-1-aminium chloride]	less efficient	3.0	–	–
(K)16RVRRGACRGDCLG [ME27]	–	–	as or more efficient	luciferase expression in tumour, by peptide [4]: 105000 RLU/mg; transfection efficiency, rank among cleavable peptides ME27, ME28, ME29 ([1]; lipofectin:peptide:pCI-Luc 2:4:1, each of Neuro 2A, AJ3.1, bEND.3, 16HBE14o-, ΣCFTE29o-, PVSMCs, p<0.05): significantly the best cleavable peptide; transfection efficiency compared with non-cleavable peptide ME61 ([1]; lipofectin:peptide:pCI-Luc 2:4:1, other cell lines than Neuro 2A, p<0.05): significantly more efficient than ME61; transfection efficiency compared with non-cleavable peptide ME61 (Neuro 2A cells; [5]): as efficient as the non-cleavable control peptide ME61
(K)16RVRRGACRGDMFGCA [ME68]	–	–	as or more efficient	–
(K)16RVRRGACRRETAWACG [FMM8]	–	–	as or more efficient	–
(K)16RVRRGACSERSMNFCG [ME69]	–	–	as or more efficient	–
(K)16RVRRGACYGLPHKFCG [PCY]	–	–	as or more efficient	–
